According to US20250152559A1, “METHODS FOR TREATING MYC-AMPLIFIED CANCER” (The Governing Council of the University of Toronto, priority 2023, published 2025):

Tested on: SU_MB002 PDOX
Assay: Orthotopic PDOX model, tumor burden and survival
Assay type: in vivo, mice
Conditions: orthotopic SU_MB002, BAY R1
Protocol: The treatment-naïve, patient-derived cell line, HD-MB03, was orthotopically engrafted into immunocompromised mice. Four days later, tumors were readily detectible via bioluminescence imaging. Thereafter mice were randomized into three cohorts, which were treated with either the vehicle or one of two BAY treatment regimens (R1 and R2; FIG. 5B).
PDOX were generated by engrafting 25,000 tumor cells (both SU_MB002 and HD-MB03 cell lines), suspended in 5 μL PBS, directly into the mouse cerebrum. Flank xenografts were generated by engrafting 2,000,000 tumor cells suspended in a 100 μL solution of PBS/Matrigel® (1:1 v/v). For preclinical studies, cells were engineered to express enhanced firefly luciferase. […] Flank tumors were isolated at matched time points and formalin fixed for 48 hours, paraffin embedded (FFPE) and sectioned for follow-up analysis. Tumor area was manually measured in H&E-stained sections of FFPE tissues using ImageJ.
For imaging via the in vivo imaging system (IVIS), mice were sedated with isoflurane gas and then administered luciferin substrate (150 mg/kg in PBS) via subcutaneous injection. After 10 minutes, bioluminescent signal (photons per second; p/s) was quantified using Living Image software.

With `CCn1c(CO)nn(-c2cc(O[C@@H](C)C(F)(F)F)c(C(=O)Nc3c(F)cccc3Cl)cc2F)c1=O` [BAY2402234] the overall survival was “increased overall survival” and the tumor burden was “reduced tumor burden”.
